Reference: US7645756B2, “Nitrogenous fused heteroaromatic ring derivative” (Banyu Pharmaceutical Co. Ltd., priority 2004, dated 2010)
pIC50: −log10 of the molar value.

Molecular target: T1, human histamine-3 receptor (Homo sapiens, UniProt Q9Y5N1)
T1 construct: expressed in transfected cells; host or cells: HEK293 and CHO-K1 (membrane preparation)
Assay: Histamine analogue-binding inhibition test ([35S]GTPγS binding, SPA)
Assay type: biochemical
Details: for pIC50: 50% inhibitory concentration to the specific [35S]GTPγS binding, membrane specimen of histamine-3 receptor expressing cells (HEK293, CHO-K1), 20 nM R-methylhistamine, 25° C., 3 hours; for inhibition of the binding of N-alpha-methylhistamine (histamine analogue) to histamine-H3 receptor: summary in words of the table's results
Excerpt: A cDNA sequence coding for a human histamine-3 receptor [see International Laid-Open WO00/39164) was cloned with expression vectors pCR2.1, pEF1x (by Invitrogen) and pCI-neo (by Promega). The resulting expression vector was transfected into host cells, HEK293 and CHO-K1 (American Type Culture Collection), according to a cationic lipid process [see Proceedings of the National Academy of Sciences of the United States of America, Vol., 84, p. 7413 (1987)] to obtain histamine-3 receptor expression cells.
A membrane specimen prepared from the cells having expressed a histamine-3 receptor was incubated in an assay buffer (50 mM Tris buffer, 100 mM NaCl, 5 mM MgCl2, pH 7.4) along with a test compound, 20 nM R-methylhistamine (histamine analogue, by Sigma), 10?M GDP (guanine nucleotide diphosphate, by Sigma), 200 pM [^35S]GTPγS (guanine nucleotide triphosphate analogue, by Amersham) and SPA resin (W heat germ agglutinin SPA beads, by Amersham) therein, on a 96-well optiplate (by Packard) at 25° C. for 3 hours, then centrifuged at 3,000 rpm, and the activity was determined with Topcount (by Packard). The non-specific binding was determined in the presence of 10 μM GTPγS (by Sigma), and the 50% inhibitory concentration (IC50) of the test compound to the specific [^35S]GTPγS binding was calculated [see British Journal of Pharmacology, Vol. 135, p. 383 (2002)].

T1 sequence (Q9Y5N1 whole entry): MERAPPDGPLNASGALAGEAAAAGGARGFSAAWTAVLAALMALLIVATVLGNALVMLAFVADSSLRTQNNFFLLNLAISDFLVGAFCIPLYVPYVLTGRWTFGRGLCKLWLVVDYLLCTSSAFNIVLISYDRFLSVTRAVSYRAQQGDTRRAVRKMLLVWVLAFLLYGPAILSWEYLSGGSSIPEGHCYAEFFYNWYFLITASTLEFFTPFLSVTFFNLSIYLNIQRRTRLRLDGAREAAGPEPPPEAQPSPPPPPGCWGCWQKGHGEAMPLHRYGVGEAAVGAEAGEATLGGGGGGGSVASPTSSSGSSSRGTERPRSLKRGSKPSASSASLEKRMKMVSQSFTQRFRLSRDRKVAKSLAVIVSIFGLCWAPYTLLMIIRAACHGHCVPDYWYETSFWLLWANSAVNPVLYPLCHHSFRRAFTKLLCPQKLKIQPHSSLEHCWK

Compound	pIC50	inhibition of the binding of N-alpha-methylhistamine (histamine analogue) to histamine-H3 receptor
2-[4-(3-piperidin-1-ylpropoxy)-phenyl]-3aH-pyrazolo[1,5-d][1,2,4]triazine [Example 1]	8.17	strongly inhibited
c1cc(-c2ccc3nncn3n2)ccc1OCCCN1CCCCC1 [Example 10, 6-[4-(3-piperidin-1-ylpropoxy)phenyl]-[1,2,4]triazolo[4,3-b]pyridazine]	8.74	strongly inhibited
Cc1nn2cnnc2cc1-c1ccc(OCCCN2CCCCC2)cc1 [Example 19, 6-Methyl-7-[4-(3-Piperidin-1-ylpropoxy)-phenyl]-[1,2,4]triazolo[4,3-b]pyridazine]	8.85	strongly inhibited
Cc1nnc2c3cccnc3c(-c3ccc(OCCCN4CCCCC4)cc3)nn12 [Example 30, 3-Methyl-6-[4-(3-piperidin-1-ylpropoxy)-phenyl]-pyrido[3,2-d][1,2,4]triazolo[4,3-b]pyridazine]	10.00	strongly inhibited

Further lines, results first:

pIC50	inhibition of the binding of N-alpha-methylhistamine (histamine analogue) to histamine-H3 receptor	Compound
8.00	strongly inhibited	3-Phenyl-6-[6-(3-piperidin-1-ylpropyl)-pyridin-3-ylmethoxy]-[1,2,4]triazolo[3,4-a]phthalazine [Example 24]
9.64	strongly inhibited	c1cc2c(-c3ccc(OCCCN4CCCCC4)cc3)nn3cnnc3c2cn1 [Example 69]
